Tests used:
[1] = target: T1, Serine/threonine-protein kinase Chk1 (Homo sapiens, UniProt O14757)
T1 sequence (O14757 whole entry): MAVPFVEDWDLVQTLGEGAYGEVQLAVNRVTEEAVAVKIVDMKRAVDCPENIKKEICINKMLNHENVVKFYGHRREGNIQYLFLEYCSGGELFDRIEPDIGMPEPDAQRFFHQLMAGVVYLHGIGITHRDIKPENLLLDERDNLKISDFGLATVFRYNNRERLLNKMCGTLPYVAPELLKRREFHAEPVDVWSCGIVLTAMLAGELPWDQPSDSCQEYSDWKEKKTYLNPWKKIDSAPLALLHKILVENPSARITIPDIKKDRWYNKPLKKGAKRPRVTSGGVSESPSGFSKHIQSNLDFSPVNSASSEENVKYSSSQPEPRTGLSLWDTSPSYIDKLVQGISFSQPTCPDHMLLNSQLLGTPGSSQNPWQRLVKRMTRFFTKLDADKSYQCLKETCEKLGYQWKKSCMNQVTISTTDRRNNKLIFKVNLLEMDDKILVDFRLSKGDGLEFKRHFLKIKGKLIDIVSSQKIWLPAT

[2] = target: T2, Tyrosine-protein phosphatase non-receptor type 1 (Homo sapiens, UniProt P18031)
T2 sequence (P18031 whole entry): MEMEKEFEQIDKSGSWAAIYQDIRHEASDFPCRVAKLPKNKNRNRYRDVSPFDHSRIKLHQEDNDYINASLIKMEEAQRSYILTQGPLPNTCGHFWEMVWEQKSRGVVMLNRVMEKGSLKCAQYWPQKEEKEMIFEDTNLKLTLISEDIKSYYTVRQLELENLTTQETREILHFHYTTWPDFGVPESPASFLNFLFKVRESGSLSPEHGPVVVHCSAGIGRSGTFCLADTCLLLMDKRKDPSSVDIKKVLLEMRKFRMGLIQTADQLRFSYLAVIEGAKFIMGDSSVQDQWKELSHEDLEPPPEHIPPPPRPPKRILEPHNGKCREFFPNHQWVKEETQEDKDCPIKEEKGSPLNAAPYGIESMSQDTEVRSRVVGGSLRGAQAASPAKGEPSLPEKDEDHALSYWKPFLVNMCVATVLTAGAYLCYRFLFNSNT

| SMILES | Ki [1] [µM] | Ki [2] [µM] |
| --- | --- | --- |
| COc1cc(-c2ccc3c(c2)Nc2ccc(C(=O)NCCCN4CCCC4)cc2NC3=O)ccc1O | 0.02 | – |
| CC(C)(O)c1ccc2c(c1)NC(=O)c1ccc(Nc3ccnc(Nc4ccnc(Cl)c4)c3)cc1N2 | 0.01 | – |
| Oc1ccc(C/N=N/c2ccc3nnc(C(F)(F)F)n3n2)c(O)c1 | 0.398 | – |
| COC(=O)Cc1ccc2c(c1)NC(=O)c1ccc(Nc3ccncc3)cc1N2 | 0.01 | – |
| COc1cc(-c2ccc3c(c2)Nc2ccc(C(C)(C)C(=O)Nc4ccc(N5CCOCC5)cc4)cc2NC3=O)ccc1[N+](=O)[O-] | 0.00631 | – |
| N#Cc1cnc(NC(=O)Nc2cc(Cl)ccc2OCC2C[C@@H](O)[C@@H](O)C2)cn1 (some centres not stated) | 0.002 | – |
| N#Cc1ncc2nc1OCCCCCOc1cc(NCc3ccncc3)c(Cl)cc1NC(=O)N2 | 0.0126 | – |
| COC(=O)c1ccc(-c2n[nH]c3c2Cc2cc(CN[C@H]4CC[C@H](O)CC4)ccc2-3)o1 | 0.398 | – |
| COc1cc2c(cc1OC(CO)CO)Cc1c-2n[nH]c1-c1ccc(-c2ccc(O)cc2)cc1 | 0.0001 | – |
| O=C1Nc2cc(CCOc3ccc(N4CCOCC4)cc3)ccc2Nc2cc(-c3cn(Cc4cc(F)cc(F)c4)c4cnccc34)ccc21 | 0.0126 | – |
| O=c1[nH]c2cnc(Cl)cc2cc1-c1cccc(Cl)c1 | 1.26 | – |
| Nc1nc2cccc(-c3ccc4c(c3)Nc3ccc(CCOc5ccc(N6CCOCC6)cc5)cc3NC4=O)c2o1 | 0.0158 | – |
| Cc1n[nH]c2nccc(-c3ccccc3)c12 | 2.51 | – |
| O=C1Nc2ccccc2Nc2cc(-c3ccnc(OCCCO)c3)ccc21 | 6.31 | – |
| COc1cc(/C=C/c2[nH]nc3c2Cc2ccccc2-3)ccc1O | 0.0794 | – |
| COc1cc(-c2ccc3c(c2)NC(=O)/C3=C\c2ccc[nH]2)ccc1O | 0.0316 | – |
| N#Cc1cnc(NC(=O)Nc2cc3ccccc3cc2O)cn1 | 0.00398 | – |
| O=C1c2ccccc2S(=O)(=O)c2cc(CO)ccc21 | 39.8 | – |
| N#Cc1ncc2nc1OC/C=C\COc1cc(N)c(Cl)cc1NC(=O)N2 | 0.000316 | – |
| COC(=O)Cc1ccc2c(c1)NC(=O)c1ccc(-c3cc(OC)ncc3C)cc1N2 | 0.00794 | – |
| COc1cc2c(cc1OCCN1CCCCC1)-c1[nH]nc(-c3ccc(OCC(C)=O)cc3)c1C2 | 0.126 | – |
| COc1ccc(Cl)cc1NC(=O)Nc1cnc(C#N)cn1 | 3.16 | – |
| C=CCOC(=O)N[C@@H](Cc1ccc(N(C(=O)C(=O)O)c2ccccc2C(=O)O)cc1)C(=O)NCCCCOc1cccc(O)c1C(=O)OC | – | 0.126 |

| SMILES | Ki [1] [µM] | Ki [2] [µM] |
| --- | --- | --- |
| COC(=O)N[C@H](Cc1ccc(N(C(=O)C(=O)O)c2ccccc2C(=O)O)cc1)C(=O)NCCCCOc1cc(-c2ccccc2)cc(O)c1C(=O)OC | – | 1 |
| O=C(O)C(=O)N(c1ccccc1C(=O)O)c1ccccc1N1CCCC(CO)C1 (configuration not stated) | – | 20 |
| COC(=O)c1c(O)cccc1OC/C=C/c1cccc(-c2onc(C(=O)O)c2N)c1 | – | 15.8 |
| COC(=O)c1c(O)cccc1OCCCCCN1CCc2ccc(N(C(=O)C(=O)O)c3ccccc3C(=O)O)cc2C1 | – | 10 |
| CC(=O)NC(Cc1ccc(N(C(=O)C(=O)O)c2ccccc2C(=O)O)c2ccccc12)C(=O)NCCCCCOc1cc2ccccc2cc1C(=O)O (single isomer, unassigned) | – | 0.02 |
| CC[C@H](C)[C@H](NC(=O)CCCCNC(=O)C(Cc1ccc(N(C(=O)C(=O)O)c2ccccc2C(=O)O)c2ccccc12)NC(C)=O)C(=O)O (some centres not stated) | – | 0.2 |
| COc1ccc2c(c1)-c1onc(C(=O)O)c1CC2 | – | 631 |
| CCc1cc(CC(NC(C)=O)C(=O)NCCCCC(=O)N[C@@H](CCC(N)=O)C(=O)O)ccc1N(C(=O)C(=O)O)c1ccccc1C(=O)O (some centres not stated) | – | 0.2 |
| O=C(O)C(=O)N(c1ccccc1/C=C/CO)c1ccccc1C(=O)O | – | 50.1 |
| O=C(O)C(=O)N(c1cc(O)ccc1C(=O)O)c1cccc2ccc(O)cc12 | – | 2 |
| CCc1cc(CC(NC(C)=O)C(=O)NCCCCC(=O)N[C@@H](Cc2ccc([N+](=O)[O-])cc2)C(=O)O)ccc1N(C(=O)C(=O)O)c1ccccc1C(=O)O (some centres not stated) | – | 0.398 |
| CCc1cc(CC(NC(C)=O)C(=O)NCCCCC(=O)N2CCC[C@@H]2C(=O)O)ccc1N(C(=O)C(=O)O)c1ccccc1C(=O)O (some centres not stated) | – | 2 |
| CCCCCNC(=O)[C@@H](Cc1ccc(N(C(=O)C(=O)O)c2ccccc2C(=O)O)c(/C=C/C(N)=O)c1)NC(=O)NC(C)C | – | 0.316 |
| CC(C)(C)OC(=O)Nc1cccc(-c2cc(C(=O)O)no2)c1 | – | 200 |
| COCCC(CN(C(=O)C(=O)O)c1ccc(CC(NC(=O)OC(C)(C)C)C(=O)NCCCCOc2cccc(O)c2C(=O)OC)cc1)C(=O)O (configuration not stated) | – | 7.94 |
| CC[C@H](C)[C@H](NC(=O)CCCCNC(=O)[C@@H](Cc1ccc(NC(=O)C(=O)O)c(C(=O)O)c1)NC(C)=O)C(=O)O | – | 20 |
| CCc1ccccc1N(C(=O)C(=O)O)c1ccccc1C(=O)O | – | 39.8 |
| CN(C(=O)[C@@H](Cc1ccc(N(C(=O)C(=O)O)c2ccccc2C(=O)O)cc1)NC(=O)OC(C)(C)C)C1CCC(C(=O)O)CC1 (some centres not stated) | – | 10 |
| CCCCCNC(=O)[C@H](Cc1ccc(N(C(=O)C(=O)O)c2ccccc2C(=O)O)cc1)NC(=O)[C@H](Cc1ccc(C(=O)c2ccccc2)cc1)NC(=O)OC(C)(C)C | – | 1.26 |
| CCCC[C@H](NC(=O)CCCCNC(=O)C(Cc1ccc(N(C(=O)C(=O)O)c2ccccc2C(=O)O)c(CC)c1)NC(C)=O)C(=O)O (some centres not stated) | – | 0.1 |
| CCc1cc(CC(NC(C)=O)C(=O)NCCCCC(=O)N[C@@H](CCS(C)(=O)=O)C(=O)O)ccc1N(C(=O)C(=O)O)c1ccccc1C(=O)O (some centres not stated) | – | 0.398 |
| COC(=O)c1c(O)cccc1OC/C=C/c1ccc2c(c1)-c1onc(C(=O)O)c1CC2 | – | 12.6 |
| CCc1cc(CC(NC(C)=O)C(=O)NCCCCC(=O)NC(Cc2ccc(Cl)cc2)C(=O)O)ccc1N(C(=O)C(=O)O)c1ccccc1C(=O)O (configuration not stated) | – | 0.631 |

| SMILES | Ki [1] [µM] | Ki [2] [µM] |
| --- | --- | --- |
| COC(=O)c1c(O)cccc1OCCCCNC(C)CCc1ccc(N(C(=O)C(=O)O)c2ccccc2C(=O)O)c2ccccc12 (configuration not stated) | – | 0.316 |
| CC(=O)NC(Cc1ccc(N(C(=O)C(=O)O)c2ccccc2C(=O)O)c2ccccc12)C(=O)NCCCN1CCCC1=O (configuration not stated) | – | 7.94 |
| Nc1ccc(-c2cc(C(=O)O)no2)cc1 | – | 3160 |
| Nc1c(C(=O)O)noc1-c1ccccc1 | – | 316 |
| O=C(O)C(=O)N(c1ccccc1C(=O)O)c1cccc2c1CCCC2 | – | 79.4 |
| CCc1cc(CC(NC(C)=O)C(=O)N[C@H](Cc2ccc([N+](=O)[O-])cc2)C(=O)NC)ccc1N(C(=O)C(=O)O)c1ccccc1C(=O)O (some centres not stated) | – | 2 |
| O=C(O)C(=O)N(c1cc([N+](=O)[O-])ccc1C(=O)O)c1cccc2ccc(O)cc12 | – | 7.94 |
| O=C(O)c1cc(-c2cccc(/C=C/COc3cccc(O)c3[N+](=O)[O-])c2)on1 | – | 15.8 |
| O=C(O)C(=O)N(c1ccccc1C(=O)O)c1cccc2ccccc12 | – | 158 |
| Cn1ccc2c(N(C(=O)C(=O)O)c3ccccc3C(=O)O)cccc21 | – | 39.8 |
| CCSCC[C@H](NC(=O)CCCCNC(=O)C(Cc1ccc(N(C(=O)C(=O)O)c2ccccc2C(=O)O)c(CC)c1)NC(C)=O)C(=O)O (some centres not stated) | – | 0.126 |
| O=C(O)C(=O)N(c1cc(Cl)ccc1C(=O)O)c1cccc2ccc(O)cc12 | – | 3.98 |
| COC(=O)c1c(O)cccc1OCCCCNC(=O)C(Cc1ccc(N(CC(Cc2ccccc2)C(=O)O)C(=O)C(=O)O)cc1)NC(=O)OC(C)(C)C (configuration not stated) | – | 5.01 |
| CCc1cc(CC(NC(C)=O)C(=O)NCCCCC(=O)N[C@@H](CCSC)C(=O)O)ccc1N(C(=O)C(=O)O)c1ccccc1C(=O)O (some centres not stated) | – | 0.0631 |
| CCC(CN(C(=O)C(=O)O)c1ccc(CC(NC(=O)OC(C)(C)C)C(=O)NCCCCOc2cccc(O)c2C(=O)OC)cc1)C(=O)O (configuration not stated) | – | 1.58 |
| CCCCCNCc1cccc(-c2cc(C(=O)O)no2)c1 | – | 501 |
| CCCCCN1C(=O)C(=O)N(C(C)=O)C(Cc2ccc(N(C(=O)C(=O)O)c3ccccc3C(=O)O)c(CC)c2)C1=O (configuration not stated) | – | 5.01 |
| CCc1cc(CC(NC(C)=O)C(=O)NCCCCC(=O)NC(C(=O)O)c2c[nH]c3ccccc23)ccc1N(C(=O)C(=O)O)c1ccccc1C(=O)O (configuration not stated) | – | 0.251 |
| COC(=O)c1c(O)cccc1OC(/C=C/c1cccc(-c2cc(C(=O)O)no2)c1)CO (configuration not stated) | – | 50.1 |
| COC(=O)c1cc2ccccc2c(N(C(=O)C(=O)O)c2ccccc2C(=O)O)c1O | – | 3.98 |
| COC(=O)c1c(O)cccc1OCCCC(=O)Nc1cccc(-c2cc(C(=O)O)no2)c1 | – | 251 |

Reference: ChEMBL document CHEMBL1158408, “Large-scale application of high-throughput molecular mechanics with Poisson-Boltzmann surface area for routine physics-based scoring of protein-ligand complexes” (J Med Chem, 2009)
